Columns and labels:
CDK9/CycT1 = target: T1, CDK9/CycT1 (Homo sapiens, UniProt P50750); test: CDK9/CycT1 kinase assay (TR-FRET, Method 1a); type: biochemical; conditions: for IC50: Method 1a, 10 μM ATP; for Selectivity CDK9 over CDK2: IC50 (CDK2)/IC50 (CDK9): Methods 1a and 2a, minimal values where CDK9 IC50 is at the assay limit
T1 construct: Recombinant full-length His-tagged human CDK9 and CycT1; His; purchased Invitrogen PV4131; host or cells: insect cells
From the text: 1a. CDK9/CycT1 Kinase Assay:
CDK9/CycT1-inhibitory activity of compounds of the present invention was quantified employing the CDK9/CycT1 TR-FRET assay as described in the following paragraphs:
Recombinant full-length His-tagged human CDK9 and CycT1, expressed in insect cells and purified by Ni-NTA affinity chromatography, were purchased from Invitrogen (Cat. No PV4131). As substrate for the kinase reaction biotinylated peptide biotin-Ttds-YISPLKSPYKISEG (C-terminus in amid form) was used which can be purchased e.g. from the company JERINI Peptide Technologies (Berlin, Germany). For the assay 50 nl of a 100 fold concentrated solution of the test compound in DMSO was pipetted into a black low volume 384 well microtiter plate (Greiner Bio-One, Frickenhausen, Germany), 2 μl of a solution of CDK9/CycT1 in aqueous assay buffer [50 mM Tris/HCl pH 8.0, 10 mM MgCl2, 1.0 mM dithiothreitol, 0.1 mM sodium ortho-vanadate, 0.01% (v/v) Nonidet-P40 (Sigma)] were added and the mixture was incubated for 15 min at 22° C. to allow pre-binding of the test compounds to the enzyme before the start of the kinase reaction. […] The concentration of CDK9/CycT1 was adjusted depending of the activity of the enzyme lot and was chosen appropriate to have the assay in the linear range, typical concentrations were in the range of 1 μg/mL. The reaction was stopped by the addition of 5 μl of a solution of TR-FRET detection reagents (0.2 μM streptavidine-XL665 [Cisbio Bioassays, Codolet, France] and 1 nM anti-RB(pSer807/pSer811)-antibody from BD Pharmingen [#558389] and 1.2 nM LANCE EU-W1024 labeled anti-mouse IgG antibody [Perkin-Elmer, product no. AD0077]) in an aqueous EDTA-solution (100 mM EDTA, 0.2% (w/v) bovine serum albumin in 100 mM HEPES pH 7.5).
The resulting mixture was incubated 1 h at 22° C. to allow the formation of complex between the phosphorylated biotinylated peptide and the detection reagents. Subsequently the amount of phosphorylated substrate was evaluated by measurement of the resonance energy transfer from the Eu-chelate to the streptavidine-XL. Therefore, the fluorescence emissions at 620 nm and 665 nm after excitation at 350 nm was measured in a HTRF reader, e.g. a Rubystar (BMG Labtechnologies, Offenburg, Germany) or a Viewlux (Perkin-Elmer). The ratio of the emissions at 665 nm and at […] was taken as the measure for the amount of phosphorylated substrate. The data were normalised (enzyme reaction without inhibitor=0% inhibition, all other assay components but no enzyme=100% inhibition).

NCI-H460 cells = test: Proliferation assay NCI-H460; type: cell-based, human; conditions: Homo sapiens, NCI-H460, 96 h, 4 days, crystal violet; read-out: Inhibition of NCI-H460 cell proliferation IC50
Procedure: Cultivated tumour cells (HeLa, human cervical tumour cells, ATCC CCL-2; NCI-H460, human non-small cell lung carcinoma cells, ATCC HTB-177; A2780, human ovarian carcinoma cells, ECACC #93112519; DU 145, hormone-independent human prostate carcinoma cells, ATCC HTB-81; HeLa-MaTu-ADR, multidrug-resistant human cervical carcinoma cells, EPO-GmbH Berlin; Caco-2, human colorectal carcinoma cells, ATCC HTB-37; B16F10, mouse melanoma cells, ATCC CRL-6475) were plated at a density of 5,000 cells/well (DU145, HeLa-MaTu-ADR), 3,000 cells/well (NCI-H460, HeLa), 2,500 cells/well (A2780), 1,500 cells/well (Caco-2), or 1,000 cells/well (B16F10) in a 96-well multititer plate in 200 μL of their respective growth medium supplemented 10% fetal calf serum. After 24 hours, the cells of one plate (zero-point plate) were stained with crystal violet (see below), while the medium of the other plates was replaced by fresh culture medium (200 μl), to which the test substances were added in various concentrations (0 μM, as well as in the range of 0.001-10 μM). The cells were incubated for 4 days in the presence of test substances. Cell proliferation was determined by staining the cells with crystal violet: the cells were fixed by adding 20 μl/measuring point of an 11% glutaric aldehyde solution for 15 minutes at room temperature. After three washing cycles of the fixed cells with water, the plates were dried at room temperature. The cells were stained by adding 100 μl/measuring point of a 0.1% crystal violet solution (pH 3.0). After three washing cycles of the stained cells with water, the plates were dried at room temperature. The dye was dissolved by adding 100 μl/measuring point of a 10% acetic acid solution. The extinction was determined by photometry at a wavelength of 595 nm. The change of cell number, in percent, was calculated by normalization of the measured values to the extinction values of the zero-point plate (=0%) and the extinction of the untreated (0 μm) cells (=100%). The IC50 values (inhibitory concentration at 50% of maximal effect) were determined by means of a 4 parameter fit. Non-adherent MOLM-13 human acute myeloid leukemia cells (DSMZ ACC 554) were seeded at a density of 5,000 cells/well in a 96-well multititer plate in 100 μL of growth medium supplemented 10% fetal calf serum. After 24 hours, cell viability of one plate (zero-point plate) was determined with the Cell Titre-Glo Luminescent Cell Viability Assay (Promega), while 50 μL of test compound containing medium was added to the wells of the other plates (final concentrations in the range of 0.001-1 μM and DMSO controls). Cell viability was assessed after 72-hour exposure with the Cell Titre-Glo Luminescent Cell Viability Assay (Promega). IC50 values (inhibitory concentration at 50% of maximal effect) were determined by means of a 4 parameter fit on measurement data which were normalized to vehicle (DMSO) treated cells (=100%) and measurement readings taken immediately before compound exposure (=0%).

T1 sequence (P50750 whole entry): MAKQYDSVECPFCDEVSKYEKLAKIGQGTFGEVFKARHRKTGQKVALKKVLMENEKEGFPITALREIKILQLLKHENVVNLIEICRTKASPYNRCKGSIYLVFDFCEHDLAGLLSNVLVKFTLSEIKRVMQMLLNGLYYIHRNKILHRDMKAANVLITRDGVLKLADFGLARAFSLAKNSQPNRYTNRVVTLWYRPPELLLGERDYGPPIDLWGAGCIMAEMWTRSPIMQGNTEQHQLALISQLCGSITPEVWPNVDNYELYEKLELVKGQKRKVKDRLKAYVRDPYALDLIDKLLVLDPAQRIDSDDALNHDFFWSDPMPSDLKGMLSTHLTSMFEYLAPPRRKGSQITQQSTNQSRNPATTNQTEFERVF
T1 sequence (O60563 whole entry partner): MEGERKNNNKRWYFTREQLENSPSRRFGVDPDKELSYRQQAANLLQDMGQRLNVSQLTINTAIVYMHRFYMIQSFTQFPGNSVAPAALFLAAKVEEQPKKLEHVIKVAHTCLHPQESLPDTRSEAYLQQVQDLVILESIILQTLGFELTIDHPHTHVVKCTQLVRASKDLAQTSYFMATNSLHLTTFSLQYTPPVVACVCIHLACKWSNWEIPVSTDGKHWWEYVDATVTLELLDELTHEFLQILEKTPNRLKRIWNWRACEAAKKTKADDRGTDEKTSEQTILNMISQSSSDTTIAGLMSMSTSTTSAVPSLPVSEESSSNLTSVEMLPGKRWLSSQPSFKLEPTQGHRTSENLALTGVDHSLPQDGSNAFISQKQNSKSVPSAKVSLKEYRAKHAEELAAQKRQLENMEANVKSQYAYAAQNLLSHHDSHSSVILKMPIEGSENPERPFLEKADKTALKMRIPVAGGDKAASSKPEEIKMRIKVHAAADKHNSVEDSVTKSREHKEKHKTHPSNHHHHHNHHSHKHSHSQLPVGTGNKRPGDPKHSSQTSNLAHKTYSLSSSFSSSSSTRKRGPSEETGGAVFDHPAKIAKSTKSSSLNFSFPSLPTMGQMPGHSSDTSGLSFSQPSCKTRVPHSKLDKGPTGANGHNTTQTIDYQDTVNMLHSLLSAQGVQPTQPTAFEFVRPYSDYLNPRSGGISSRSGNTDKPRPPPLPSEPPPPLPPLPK

In the case of `CCOC(=O)N=S(C)(=O)Cc1cc2nc(c1)OCCCOc1cc(F)ccc1-c1cc(ncc1F)N2` (racemic) [Example 20, (rac)-ethyl [{[15,19-difluoro-3,4-dihydro-2H,11H-10,6-(azeno)-12,16-(metheno)-1,5,11,13-benzodioxadiazacyclooctadecin-8-yl]methyl}(methyl)oxido-λ^6-sulfanylidene]carbamate], the IC50 (CDK9/CycT1) is reported as 5.3 nM, the “Selectivity CDK9 over CDK2: IC50 (CDK2)/IC50 (CDK9)” value (“Selectivity CDK9 over CDK2: IC50” for short) (CDK9/CycT1) is reported as 2.2 and the IC50 (NCI-H460 cells) is reported as 35 nM.
With `CCNC(=O)N=S(C)(=O)Cc1cc2nc(c1)OCCCOc1cc(F)ccc1-c1cc(ncc1F)N2` (racemic) [Example 17, (rac)-1-[{[15,19-difluoro-3,4-dihydro-2H,11H-10,6-(azeno)-12,16-(metheno)-1,5,11,13-benzodioxadiazacyclooctadecin-8-yl]methyl}(methyl)oxido-λ^6-sulfanylidene]-3-ethylurea] the IC50 (CDK9/CycT1) was 4.4 nM, the “Selectivity CDK9 over CDK2: IC50” value (CDK9/CycT1) was 1.3 and the IC50 (NCI-H460 cells) was 31 nM.
In the case of `CS(=O)(Cc1cc2nc(c1)OCCCOc1cc(F)ccc1-c1cc(ncc1F)N2)=NC(=O)OCCCl` (racemic) [Example 21, (rac)-2-chloroethyl [{[15,19-difluoro-3,4-dihydro-2H,11H-10,6-(azeno)-12,16-(metheno)-1,5,11,13-benzodioxadiazacyclooctadecin-8-yl]methyl}(methyl)oxido-λ^6-sulfanylidene]carbamate], the IC50 (CDK9/CycT1) is reported as 7.3 nM, the “Selectivity CDK9 over CDK2: IC50” value (CDK9/CycT1) is reported as 1.6 and the IC50 (NCI-H460 cells) is reported as 28 nM.
With `CSCc1cc2nc(c1)OCCCOc1cc(F)ccc1-c1cc(ncc1F)N2` [Example 3, 15,19-Difluoro-8-[(methylsulfanyl)methyl]-3,4-dihydro-2H,11H-10,6-(azeno)-12,16-(metheno)-1,5,11,13-benzodioxadiazacyclooctadecine] the IC50 (CDK9/CycT1) was 6.8 nM, the “Selectivity CDK9 over CDK2: IC50” value (CDK9/CycT1) was 6.0 and the IC50 (NCI-H460 cells) was 39 nM.
For `CS(=O)(=O)Cc1cc2nc(c1)OCCCOc1cc(F)ccc1-c1cc(ncc1F)N2` [Example 8, 15,19-difluoro-8-[(methylsulfonyl)methyl]-3,4-dihydro-2H,11H-10,6-(azeno)-12,16-(metheno)-1,5,11,13-benzodioxadiazacyclooctadecine], the IC50 (CDK9/CycT1) was 3.8 nM, the “Selectivity CDK9 over CDK2: IC50” value (CDK9/CycT1) was 1.3 and the IC50 (NCI-H460 cells) was 20 nM.
`CS(=O)(Cc1cc2nc(c1)OCCCOc1cc(F)ccc1-c1cc(ncc1F)N2)=NC(=O)OCCN` (racemic) [Example 25, (rac)-2-aminoethyl [{[15,19-difluoro-3,4-dihydro-2H,11H-10,6-(azeno)-12,16-(metheno)-1,5,11,13-benzodioxadiazacyclooctadecin-8-yl]methyl}(methyl)oxido-λ^6-sulfanylidene]carbamate] was tested, and the IC50 (CDK9/CycT1) was 4.3 nM, the “Selectivity CDK9 over CDK2: IC50” value (CDK9/CycT1) was 1.3 and the IC50 (NCI-H460 cells) was 109 nM.
In the case of `CN=S(C)(=O)Cc1cc2nc(c1)OCCCOc1cc(F)ccc1-c1cc(ncc1F)N2` (racemic) [Example 19, (rac)-8-[(N,S-dimethylsulfonimidoyl)methyl]-15,19-difluoro-3,4-dihydro-2H,11H-10,6-(azeno)-12,16-(metheno)-1,5,11,13-benzodioxadiazacyclooctadecine], the IC50 (CDK9/CycT1) is reported as 5.3 nM, the “Selectivity CDK9 over CDK2: IC50” value (CDK9/CycT1) is reported as 2.9 and the IC50 (NCI-H460 cells) is reported as 49 nM.
In the case of `CSCc1cc2cc(c1)OCCCOc1cc(F)ccc1-c1nc(ncc1F)N2` [Example 2, 15,19-Difluoro-8-[(methylsulfanyl)methyl]-3,4-dihydro-2H,11H-12,16-(azeno)-10,6-(metheno)-1,5,11,13-benzodioxadiazacyclooctadecine], the IC50 (CDK9/CycT1) is reported as 7.3 nM, the “Selectivity CDK9 over CDK2: IC50” value (CDK9/CycT1) is reported as 13.5 and the IC50 (NCI-H460 cells) is reported as 56 nM.
In the case of `CSCc1cc2nc(c1)OCCOc1cc(F)ccc1-c1cc(ncc1F)N2` [Example 9, 14,18-Difluoro-7-[(methylsulfanyl)methyl]-2,3-dihydro-10H-9,5-(azeno)-11,15-(metheno)-1,4,10,12-benzodioxadiazacycloheptadecine], the IC50 (CDK9/CycT1) is reported as 18 nM and the “Selectivity CDK9 over CDK2: IC50” value (CDK9/CycT1) is reported as 963.7.
